This note sets out measurements from patent US20250186542A1, “COMPOSITION CONTAINING PEPTIDE COMPOUND FOR USE WITH SURFACTANT” (CHUGAI SEIYAKU KABUSHIKI KAISHA, priority 2022, published 2025).

Converted amounts (≈) assume the structure as drawn. Bridge positions count the residues as written; N and C are the ends. Square brackets hold non-standard residues; d marks the D form. Peptide text beside a SMILES is read from it. * marks the point of attachment. ξ: configuration not given here. hPhe(3-Cl-4-CF3) = N[C@@H](CCc1ccc(C(F)(F)F)c(Cl)c1)C(=O)O; Phe(3-Cl) = N[C@@H](Cc1cccc(Cl)c1)C(=O)O; NMeCha = CN[C@@H](CC1CCCCC1)C(=O)O; NMeChg = CN[C@H](C(=O)O)C1CCCCC1; NMeF = CN[C@@H](Cc1ccccc1)C(=O)O; NMeD = CN[C@@H](CC(=O)O)C(=O)O; dNMeD = CN[C@H](CC(=O)O)C(=O)O; dNMeL = CN[C@H](CC(C)C)C(=O)O; ξIle = CC[C@H](C)C(N)C(=O)O; NMeS = CN[C@@H](CO)C(=O)O; Pip = O=C(O)[C@@H]1CCCCN1; Nle = CCCC[C@H](N)C(=O)O; Piperidide = C1CCN(*)CC1; Pyrrolidide = C1CCN(*)C1; dNMeA = CN[C@H](C)C(=O)O; Ac5c = NC1(C(=O)O)CCCC1; Sar = CNCC(=O)O; Propyl = CCC*

The nature of data set [1]: Evaluation of solubility in 50 mM phosphate buffer (PPB, pH 6.5). In kind it is physicochemical. As for the experimental part:
To an excessive amount of a lyophilized powder of the compound, 50 mM phosphate buffer (PPB, pH 6.5) is added, and after shaking (37° C., 1 atm, 1800 rpm, for 22 to 24 hours), the mixture is filtered with a filter, and the compound concentration of the filtrate is measured by LC/MS/MS. Solubility (g/mL) is calculated from the measured compound concentration.
Solubility (μg/mL) was calculated from the measured compound concentration.

Data set [2] deals with Caco-2 cells. Nature of the data set: Evaluation of Caco-2 membrane permeability. In kind it is in vitro ADME. The note with it: HBSS pH 7.4 4% BSA basal, 180 minutes; for Without 5 mM lauroyl-L-carnitine Permeability coefficient (Caco-2 Papp): 10 µM compound in FaSSIF/HBSS pH 6.5 apical, no lauroyl-L-carnitine; for With 5 mM lauroyl-L-carnitine Permeability coefficient (Caco-2 Papp): 10 µM compound, 5 mM lauroyl-L-carnitine in FaSSIF/HBSS pH 6.5 apical. As to the method:
(§1) In the above measurements, a Pgp inhibitor, such as Zosquidar, can be added to the FaSSIF/HBSS buffer and the HBSS buffer, respectively.
(§2) After step (step 1) and before step (step 2) of the above, pre-incubation can be performed by allowing each well to stand at 5% CO2, 37° C., 80 rpm for 20 to 24 hours.
(§3) After pre-incubation, the solution at the Basal side can be removed and washed, and a new solution of the same composition can be added. A Pgp inhibitor can also be added to the new solution. When the pre-incubation is performed, it is preferable that a DMEM solution (pH 7.4) containing 4% BSA is used instead of the HBSS buffer (pH 7.4).
(§4) In addition, as the concentration of the substance to be evaluated on the donor side used in the calculation of the permeability coefficient in step (step 3) above, the concentration when initially added can be used, or the concentration measured by collecting the solution at the Apical side before the start of pre-incubation or the start of shaking in the above step (step 2) can be used. In particular, when the preincubation is performed, it is preferable to use the concentration of the solution at the Apical side collected before pre-incubation.
For orientation: Passage across Caco-2 layers is used to estimate intestinal permeability.

Data set [3] is described as follows: Evaluation of Caco-2 membrane permeability. In kind it is in vitro ADME. The note with it: human. As for the experimental part: as §1, §2, §3, §4
Where [4] appears, read: 50 mM phosphate buffer pH 6.5, 37° C., 1 atm, 22 to 24 hours, read-out: PPB solubility.
[5] abbreviates: Caco-2, With 5 mM lauroyl-L-carnitine Permeability coefficient (Caco-2 Papp).
[6] abbreviates: Caco-2, Without 5 mM lauroyl-L-carnitine Permeability coefficient (Caco-2 Papp).

As for `CC[C@H](C)[C@@H]1NC(=O)[C@H](CC(C)C)N(C)C(=O)CC(C(=O)N2CCOCC2)N(C)C(=O)[C@H](C2CCCC2)N(C)C(=O)C2(CCCC2)NC(=O)[C@@H]2CCCN2C(=O)[C@H](CCc2ccc(C(F)(F)F)c(Cl)c2)NC(=O)CN(C)C(=O)[C@H](CC2CCCCC2)N(C)C(=O)[C@@H]2CCN2C(=O)[C@H](C)N(C)C1=O` (single isomer, unassigned) [Compound 2], the solubility in data set [1] (setting [4]) was found to be 1.18 µg/mL (≈ 0.81 µM). In addition, in data set [2], the “Without 5 mM lauroyl-L-carnitine Permeability coefficient (Caco-2 Papp)” value was found to be 0.0491 ×10⁻⁶ cm/s and the “With 5 mM lauroyl-L-carnitine Permeability coefficient (Caco-2 Papp)” value came out at 0.265 ×10⁻⁶ cm/s.

For `CC[C@H](C)[C@@H]1NC(=O)[C@H](CC(C)C)N(C)C(=O)CC(C(=O)N2CCOCC2)N(C)C(=O)[C@H](C2CCCC2)N(C)C(=O)C2(CCCC2)NC(=O)[C@@H]2CCCN2C(=O)[C@H](CCc2ccc(C(F)(F)F)c(Cl)c2)NC(=O)CN(C)C(=O)[C@H](Cc2ccc(C)cc2)N(CC)C(=O)[C@@H]2CCN2C(=O)[C@H](C)N(C)C1=O` (single isomer, unassigned) [Compound 3], the concentration in solution in data set [1] (pH 6.5) (solubility) was 1.81 µg/mL (≈ 1.22 µM). Further, the Papp A→B at 180 min in data set [3] (setting [5]) is 0.366 ×10⁻⁶ cm/s; in data set [3] (setting [6]) it was 0.215 ×10⁻⁶ cm/s.

With `CC[C@H](C)[C@@H]1NC(=O)[C@H](CC(C)C)N(C)C(=O)CC(C(=O)N2CCCCC2)N(C)C(=O)[C@H](C2CCCC2)N(C)C(=O)C2(CCCC2)NC(=O)[C@@H]2CCCN2C(=O)[C@H](CCc2ccc(C(F)(F)F)c(Cl)c2)NC(=O)CN(C)C(=O)[C@H](CC2CCCCC2)N(C)C(=O)[C@@H]2CCN2C(=O)[C@H](C)N(C)C1=O` (single isomer, unassigned) [Compound 8], the solubility in data set [1] (setting [4]) came out at 1.13 µg/mL (≈ 0.777 µM). In addition, in data set [2], the “Without 5 mM lauroyl-L-carnitine Permeability coefficient (Caco-2 Papp)” value was 0.042 ×10⁻⁶ cm/s and the “With 5 mM lauroyl-L-carnitine Permeability coefficient (Caco-2 Papp)” value is 0.154 ×10⁻⁶ cm/s.

On to `CC[C@H](C)[C@@H]1NC(=O)C(CC(C)C)N(C)C(=O)CC(C(=O)N(C)C)N(C)C(=O)[C@H](C2CCCC2)N(C)C(=O)C(C)NC(=O)C(C)N(C)C(=O)[C@H](CCc2ccc(C(F)(F)F)c(Cl)c2)NC(=O)CN(C)C(=O)[C@H](CC2CCCCC2)N(C)C(=O)[C@@H]2CCN2C(=O)[C@H](C)N(C)C1=O` (single isomer, unassigned) [Compound 9], for which the solubility in data set [1] (setting [4]) stood at 9.18 µg/mL (≈ 6.74 µM). In data set [2], the “Without 5 mM lauroyl-L-carnitine Permeability coefficient (Caco-2 Papp)” value is 0.00949 ×10⁻⁶ cm/s and the “With 5 mM lauroyl-L-carnitine Permeability coefficient (Caco-2 Papp)” value came to 0.0214 ×10⁻⁶ cm/s.

Regarding `CC[C@H](C)[C@@H]1NC(=O)[C@H](CC(C)C)N(C)C(=O)CC(C(=O)N2CCOCC2)N(C)C(=O)[C@H](C2CCCC2)N(C)C(=O)C2(CCCC2)NC(=O)[C@@H]2CCCN2C(=O)[C@H](CCc2ccc(C(F)(F)F)c(Cl)c2)NC(=O)CN(C)C(=O)[C@H](C2CCCC2)N(C)C(=O)[C@@H]2CCN2C(=O)[C@H](C)NC1=O` (single isomer, unassigned) [Compound 10], the solubility in data set [1] (setting [4]) is 101 µg/mL (≈ 71.6 µM). For the same molecule, the Papp A→B at 180 min in data set [3] (Caco-2, 5 mM lauroyl-L-carnitine in FaSSIF/HBSS pH 6.5 apical, HBSS pH 7.4 4% BSA basal, 180 minutes) was found to be 0.014 ×10⁻⁶ cm/s. Also, the “Without 5 mM lauroyl-L-carnitine Permeability coefficient (Caco-2 Papp)” value in data set [2] is under 0.00976 ×10⁻⁶ cm/s.

Turning to `CCCCN1CC(=O)N(C)[C@@H](CC(C)C)C(=O)N[C@@H](Cc2ccc(C(=O)NS(C)(=O)=O)c(OC)c2)C(=O)N(C)[C@@H](CC(C)C)C(=O)N(C)[C@@H](CC(C)C)C(=O)NC(C(=O)N2CCCCC2)CC(=O)NC(CC(C)C)C(=O)N(C)[C@@H](Cc2ccccc2)C(=O)NC(C(C)C)C(=O)N(C)[C@@H](CC(C)C)C(=O)N[C@@H]([C@H](C)O)C1=O` (single isomer, unassigned) [Compound 11], in data set [1] (pH 6.5), the solubility is 16.2 µg/mL (≈ 10.3 µM). Moreover, the Papp A→B at 180 min in data set [3] (setting [5]) came out at 0.0302 ×10⁻⁶ cm/s; in data set [3] (setting [6]) it was 0.00921 ×10⁻⁶ cm/s.

Take `CC[C@@H](C)[C@H]1NC(=O)[C@@H](Cc2ccccc2)N(C)C(=O)CN(C)C(=O)C[C@@H](C(=O)N2CCCCC2)NC(=O)[C@@H](CC(C)C)N(C)C(=O)[C@@H](COC(C)(C)C)NC(=O)[C@@H](CC(C)C)N(C)C(=O)[C@@H](CCc2ccccc2)N(C)C(=O)CN(C)C(=O)[C@@H]([C@H](C)O)NC(=O)[C@@H](CC(C)C)N(C)C1=O` (stereo in doubt) [Compound 7]: the solubility in data set [1] (setting [4]) turned out to be 5.76 µg/mL (≈ 4.11 µM). In data set [2], the “Without 5 mM lauroyl-L-carnitine Permeability coefficient (Caco-2 Papp)” value was under 0.0944 ×10⁻⁶ cm/s and the “With 5 mM lauroyl-L-carnitine Permeability coefficient (Caco-2 Papp)” value stood at 0.526 ×10⁻⁶ cm/s.

As for `CC[C@H](C)C1NC(=O)[C@@H](CC(C)C)N(C)C(=O)C[C@H](C(=O)N2CCCCC2)N(C)C(=O)[C@H](C2CCCCC2)N(C)C(=O)C2(CCCC2)NC(=O)[C@@H]2CCCN2C(=O)[C@H](CCc2ccc(C(F)(F)F)c(Cl)c2)NC(=O)CN(C)C(=O)[C@H](CC2CCCCC2)N(C)C(=O)CN(C)C(=O)CN(C)C1=O` (some centres unmarked) [Compound 1] ([dNMeL][ξIle][Sar][Sar][NMeCha][Sar][hPhe(3-Cl-4-CF3)]P[Ac5c][NMeChg][dNMeD]-Piperidide; lactam N-11), in data set [1] (setting [4]), the solubility is 1.12 µg/mL (≈ 0.777 µM). For the same molecule, in data set [2], the “Without 5 mM lauroyl-L-carnitine Permeability coefficient (Caco-2 Papp)” value was determined as 0.0142 ×10⁻⁶ cm/s and the “With 5 mM lauroyl-L-carnitine Permeability coefficient (Caco-2 Papp)” value was 0.253 ×10⁻⁶ cm/s.

As for `CCCC[C@@H]1NC(=O)[C@@H]2CCCN2C(=O)[C@H](CCCC)NC(=O)[C@@H](C)N(C)C(=O)C[C@@H](C(=O)N2CCCC2)N(C)C(=O)[C@@H]2CCCN2C(=O)[C@H]([C@@H](C)CC)NC(=O)[C@@H]2CCCCN2C(=O)[C@H](Cc2cccc(Cl)c2)NC(=O)[C@H](COCCC)N(C)C(=O)[C@H](Cc2ccccc2)N(C)C1=O` [Compound 5] ([dNMeA][Nle]P[Nle][NMeF][NMeS](Propyl)[Phe(3-Cl)][Pip]IP[NMeD]-Pyrrolidide; lactam N-11), in data set [2], the “Without 5 mM lauroyl-L-carnitine Permeability coefficient (Caco-2 Papp)” value is 0.00372 ×10⁻⁶ cm/s and the “With 5 mM lauroyl-L-carnitine Permeability coefficient (Caco-2 Papp)” value is 0.0264 ×10⁻⁶ cm/s.

Usually solubility stands for the concentration that dissolves in the medium under given conditions. The term Papp A→B denotes how fast a substance crosses the layer from the apical side. A higher Papp A→B goes with fast passage.
